Test results as given in US10196390B2, “TYK2 inhibitors and uses thereof” (Nimbus Lakshmi, Inc., priority 2014, dated 2019).

Legend:
JAK2 = JAK2 (Homo sapiens (Human), UniProt O60674); assay: JAK2 activity inhibition assay (radioactive kinase assay / Caliper assay); assay type: biochemical; settings: read-out: JAK2 Ki
Procedure, shortened: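 Reaction ran 25 min at 28° C after adding peptide/ATP mix (10 mM MgCl2) to compound and enzyme in HEPES pH 7.5 buffer with Brij-35, Triton and EGTA. EDTA stop, then microfluidic off-chip separation quantified phosphorylated peptide.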

TYK2 = TYK2 (Homo sapiens (Human), UniProt P29597); assay: Tyk2 activity inhibition assay (radioactive kinase assay / Caliper assay); assay type: biochemical
Sequence of TYK2 (P29597 whole entry): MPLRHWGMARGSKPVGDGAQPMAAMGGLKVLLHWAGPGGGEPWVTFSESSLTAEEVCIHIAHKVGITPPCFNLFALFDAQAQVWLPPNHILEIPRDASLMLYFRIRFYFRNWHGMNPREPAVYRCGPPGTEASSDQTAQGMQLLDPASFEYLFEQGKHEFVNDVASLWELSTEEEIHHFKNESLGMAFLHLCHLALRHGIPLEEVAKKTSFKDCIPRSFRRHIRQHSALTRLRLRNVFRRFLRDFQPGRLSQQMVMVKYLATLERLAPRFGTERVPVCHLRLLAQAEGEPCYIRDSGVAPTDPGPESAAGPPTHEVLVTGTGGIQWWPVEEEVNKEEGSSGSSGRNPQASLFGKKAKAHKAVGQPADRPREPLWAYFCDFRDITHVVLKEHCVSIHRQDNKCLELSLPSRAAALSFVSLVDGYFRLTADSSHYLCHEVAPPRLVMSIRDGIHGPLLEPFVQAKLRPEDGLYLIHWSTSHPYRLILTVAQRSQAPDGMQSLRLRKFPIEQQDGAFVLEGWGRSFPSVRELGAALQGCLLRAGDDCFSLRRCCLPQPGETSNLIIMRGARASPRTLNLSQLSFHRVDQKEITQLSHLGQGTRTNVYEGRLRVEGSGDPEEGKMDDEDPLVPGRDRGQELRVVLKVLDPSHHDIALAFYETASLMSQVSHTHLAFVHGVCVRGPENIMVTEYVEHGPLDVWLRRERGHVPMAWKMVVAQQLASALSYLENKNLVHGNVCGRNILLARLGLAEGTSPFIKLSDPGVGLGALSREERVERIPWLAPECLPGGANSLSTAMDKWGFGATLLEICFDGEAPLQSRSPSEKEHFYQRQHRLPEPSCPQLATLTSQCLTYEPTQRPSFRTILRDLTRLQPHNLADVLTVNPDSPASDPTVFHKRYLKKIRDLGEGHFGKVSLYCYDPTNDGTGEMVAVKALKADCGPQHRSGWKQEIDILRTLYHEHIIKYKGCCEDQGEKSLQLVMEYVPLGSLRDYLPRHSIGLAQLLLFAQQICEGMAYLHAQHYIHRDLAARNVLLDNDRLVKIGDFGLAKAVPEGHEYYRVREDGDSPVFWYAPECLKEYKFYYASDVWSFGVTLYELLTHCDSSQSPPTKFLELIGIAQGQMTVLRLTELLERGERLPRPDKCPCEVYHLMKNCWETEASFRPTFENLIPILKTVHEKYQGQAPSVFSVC
Procedure, shortened: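 Two formats were used. Caliper off-chip mobility shift read phosphorylated peptide 30 (3 uM) after 25 min at 28° C with 9.75 nM TYK2 and ATP at 16 uM or 1 mM. Radioactive assay: 10 μM 33P-ATP, 20 μM peptide, 120 min room temp, P81 filter counting.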

Sequence of JAK2 (O60674 whole entry): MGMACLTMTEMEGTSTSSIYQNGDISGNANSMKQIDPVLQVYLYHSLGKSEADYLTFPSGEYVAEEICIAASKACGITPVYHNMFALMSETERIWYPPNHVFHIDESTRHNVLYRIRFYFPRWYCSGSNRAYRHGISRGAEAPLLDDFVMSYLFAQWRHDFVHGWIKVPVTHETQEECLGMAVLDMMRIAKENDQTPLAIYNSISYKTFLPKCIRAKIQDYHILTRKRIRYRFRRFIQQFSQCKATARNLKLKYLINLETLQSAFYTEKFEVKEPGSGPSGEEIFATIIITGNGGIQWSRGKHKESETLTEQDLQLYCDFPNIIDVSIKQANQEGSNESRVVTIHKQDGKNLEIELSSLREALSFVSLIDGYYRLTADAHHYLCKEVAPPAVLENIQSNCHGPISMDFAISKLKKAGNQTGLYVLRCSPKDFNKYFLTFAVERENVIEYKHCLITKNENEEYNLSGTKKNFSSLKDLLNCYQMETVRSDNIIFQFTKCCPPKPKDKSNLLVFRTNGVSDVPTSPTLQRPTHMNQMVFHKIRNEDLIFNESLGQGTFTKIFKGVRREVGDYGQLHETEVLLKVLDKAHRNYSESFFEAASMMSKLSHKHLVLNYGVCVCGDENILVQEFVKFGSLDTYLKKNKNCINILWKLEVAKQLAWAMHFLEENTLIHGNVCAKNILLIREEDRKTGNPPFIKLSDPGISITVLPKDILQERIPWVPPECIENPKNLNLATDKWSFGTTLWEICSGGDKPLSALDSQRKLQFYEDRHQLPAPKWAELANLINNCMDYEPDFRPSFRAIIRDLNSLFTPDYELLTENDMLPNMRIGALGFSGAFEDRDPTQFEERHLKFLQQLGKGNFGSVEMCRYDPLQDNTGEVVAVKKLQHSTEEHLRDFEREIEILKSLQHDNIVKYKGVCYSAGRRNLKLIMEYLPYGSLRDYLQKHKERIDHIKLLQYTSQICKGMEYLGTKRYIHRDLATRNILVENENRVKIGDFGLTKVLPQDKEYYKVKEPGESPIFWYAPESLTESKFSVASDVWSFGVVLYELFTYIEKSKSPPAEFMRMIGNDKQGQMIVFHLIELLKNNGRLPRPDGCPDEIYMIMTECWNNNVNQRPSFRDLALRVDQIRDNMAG

SMILES	Ki (JAK2) [µM]	Ki (TYK2) [µM]
O=C1NCc2nc(-c3c(F)cccc3F)nc(Nc3cnn(CC(=O)N4CCC[C@H]4CO)c3)c21 [Compound I-68, (S)-2-(2,6-difluorophenyl)-4-((1-(2-(2-(hydroxymethyl)pyrrolidin-1-yl)-2-oxoethyl)-1H-pyrazol-4-yl)amino)-6,7-dihydro-5H-pyrrolo[3,4-d]pyrimidin-5-one]	> 1	0.01 to 0.1
CC1(C)C[C@@H](c2ccc(Nc3nc(-c4c(F)cccc4F)nc4c3C(=O)NC4)cc2)C(=O)N1 [Compound I-218, (S)-2-(2,6-difluorophenyl)-4-((4-(5,5-dimethyl-2-oxopyrrolidin-3-yl)phenyl)amino)-6,7-dihydro-5H-pyrrolo[3,4-d]pyrimidin-5-one]	0.1 to 1	< 0.01
CN1C(=O)[C@@](C)(c2ccc(Nc3nc(-c4c(F)cccc4F)nc4c3C(=O)NC4)cc2)CC1(C)C [Compound I-222, (R)-2-(2,6-difluorophenyl)-4-((4-(1,3,5,5-tetramethyl-2-oxopyrrolidin-3-yl)phenyl)amino)-6,7-dihydro-5H-pyrrolo[3,4-d]pyrimidin-5-one]	0.01 to 0.1	< 0.01
CN1C(=O)C(C)(c2ccc(Nc3nc(-c4c(F)cccc4F)nc4c3C(=O)NC4)cc2)CC1(C)C (stereo not drawn) [Compound I-220, 2-(2,6-difluorophenyl)-4-((4-(1,3,5,5-tetramethyl-2-oxo-pyrrolidin-3-yl)phenyl)amino)-6,7-dihydro-5H-pyrrolo[3,4-d]pyrimidin-5-one]	0.01 to 0.1	< 0.01
O=C(Cc1ccc(Nc2nc(-c3c(F)cccc3C(F)(F)F)nc3c2C(=O)NC3)cc1)NC1CCNCC1 [Compound I-83, 2-(4-((2-(2-fluoro-6-(trifluoromethyl)phenyl)-5-oxo-6,7-dihydro-5H-pyrrolo[3,4-d]pyrimidin-4-yl)amino)phenyl)-N-(piperidin-4-yl)acetamide]	0.1 to 1	0.01 to 0.1
CCNC(=O)Cc1ccc(Nc2nc(-c3c(F)cncc3F)nc3c2C(=O)NC3)cc1 [Compound I-208, 2-(4-((2-(3,5-difluoropyridin-4-yl)-5-oxo-6,7-dihydro-5H-pyrrolo[3,4-d]pyrimidin-4-yl)amino)phenyl)-N-ethylacetamide]	> 1	0.1 to 1
CCOC(=O)Cc1ccc(Nc2nc(-c3c(Cl)cccc3Cl)nc3c2C(=O)NC3)cc1 [Compound I-5, ethyl 2-(4-((2-(2,6-dichlorophenyl)-5-oxo-6,7-dihydro-5H-pyrrolo[3,4-d]pyrimidin-4-yl)amino)phenyl)acetate]	0.1 to 1	< 0.01
NC(=O)Cc1ccc(Nc2nc(-c3ccccc3Cl)nc3c2C(=O)NC3)cc1 [Compound I-8, 2-(4-((2-(2-chlorophenyl)-5-oxo-6,7-dihydro-5H-pyrrolo[3,4-d]pyrimidin-4-yl)amino)phenyl)acetamide]	> 1	0.01 to 0.1
O=C1NCc2nc(-c3c(F)cccc3Cl)nc(Nc3ccc(C4CCNC4=O)cc3)c21 (stereo not drawn) [Compound I-113, 2-(2-chloro-6-fluorophenyl)-4-((4-(2-oxopyrrolidin-3-yl)phenyl)-amino)-6,7-dihydro-5H-pyrrolo[3,4-d]pyrimidin-5-one]	0.1 to 1	< 0.01
CC(C(=O)O)c1ccc(Nc2nc(-c3c(F)cccc3F)nc3c2C(=O)NC3)cc1 (stereo not drawn) [Compound I-189, 2-(4-((2-(2,6-difluorophenyl)-5-oxo-6,7-dihydro-5H-pyrrolo[3,4-d]pyrimidin-4-yl)amino)phenyl)propanoic Acid]	0.1 to 1	< 0.01
O=C(NCC1CC1)c1ccc(Nc2cc(-c3c(F)cccc3F)nc3c2C(=O)NC3)nc1 [Compound I-226, N-(cyclopropylmethyl)-6-((2-(2,6-difluorophenyl)-5-oxo-6,7-dihydro-5H-pyrrolo[3,4-b]pyridin-4-yl)amino)nicotinamide]	0.01 to 0.1	< 0.01
O=C(O)Cc1ccc(Nc2cc(-c3c(F)cccc3F)nc3c2C(=O)NC3)nc1 [Compound I-186, 2-(6-((2-(2,6-difluorophenyl)-5-oxo-6,7-dihydro-5H-pyrrolo[3,4-b]pyridin-4-yl)amino)pyridin-3-yl)acetic Acid]	0.1 to 1	< 0.01
O=C1NCc2nc(-c3c(F)cccc3F)nc(Nc3ccc([C@@H]4CCN(C5CCC5)C4=O)cc3)c21 [Compound I-119, (S)-4-((4-(1-cyclobutyl-2-oxopyrrolidin-3-yl)phenyl)amino)-2-(2,6-difluorophenyl)-6,7-dihydro-5H-pyrrolo[3,4-d]pyrimidin-5-one]	0.1 to 1	< 0.01

Second part, the molecule after the results:

Ki (JAK2) [µM]	Ki (TYK2) [µM]	SMILES
0.01 to 0.1	< 0.01	O=C1NCc2nc(-c3c(F)cccc3F)cc(Nc3ccc([C@H]4CCNC4=O)cn3)c21 [Compound I-91, (R)-2-(2,6-difluorophenyl)-4-((5-(2-oxopyrrolidin-3-yl)pyridin-2-yl)amino)-6,7-dihydro-5H-pyrrolo[3,4-b]pyridin-5-one]
0.1 to 1	< 0.01	O=C(O)Cc1ccc(Nc2nc(-c3c(F)cccc3Cl)nc3c2C(=O)NC3)cc1 [Compound I-10, 2-(4-((2-(2-chloro-6-fluorophenyl)-5-oxo-6,7-dihydro-5H-pyrrolo[3,4-d]pyrimidin-4-yl)amino)phenyl)acetic Acid]
> 1	0.01 to 0.1	O=C(O)Cn1cc(Nc2nc(-c3c(F)cccc3F)nc3c2C(=O)NC3)cn1 [Compound I-71, 2-(4-((2-(2,6-difluorophenyl)-5-oxo-6,7-dihydro-5H-pyrrolo[3,4-d]pyrimidin-4-yl)amino)-1H-pyrazol-1-yl)acetic Acid]
0.01 to 0.1	< 0.01	CN1CCN[C@@](C)(c2ccc(Nc3nc(-c4c(F)cccc4F)nc4c3C(=O)NC4)cc2)C1=O [Compound I-217, (S)-2-(2,6-difluorophenyl)-4-((4-(2,4-dimethyl-3-oxopiperazin-2-yl)phenyl)amino)-6,7-dihydro-5H-pyrrolo[3,4-d]pyrimidin-5-one]
0.1 to 1	< 0.01	O=C(Cc1ccc(Nc2nc(-c3c(F)cccc3F)nc3c2C(=O)NC3)cc1)N[C@@H]1CCCNC1 [Compound I-61, (R)-2-(4-((2-(2,6-difluorophenyl)-5-oxo-6,7-dihydro-5H-pyrrolo[3,4-d]pyrimidin-4-yl)amino)phenyl)-N-(piperidin-3-yl)acetamide]
0.01 to 0.1	< 0.01	CC1(c2ccc(Nc3nc(-c4c(F)cccc4F)nc4c3C(=O)NC4)cc2)NC(=O)NC1=O (stereo not drawn) [Compound I-172, 5-(4-((2-(2,6-difluorophenyl)-5-oxo-6,7-dihydro-5H-pyrrolo[3,4-d]pyrimidin-4-yl)amino)phenyl)-5-methylimidazolidine-2,4-dione]
0.1 to 1	< 0.01	O=C1NCc2nc(-c3c(F)cccc3F)nc(Nc3ccc(C4CCCNC4=O)cc3)c21 (stereo not drawn) [Compound I-153, 2-(2,6-difluorophenyl)-4-((4-(2-oxopiperidin-3-yl)phenyl)amino)-6,7-dihydro-5H-pyrrolo[3,4-d]pyrimidin-5-one]
0.01 to 0.1	< 0.01	CC1(c2ccc(Nc3nc(-c4c(F)cccc4F)nc4c3C(=O)NC4)cc2)CCN(C2CCOCC2)C1=O (stereo not drawn) [Compound I-124, 2-(2,6-difluorophenyl)-4-((4-(3-methyl-2-oxo-1-(tetrahydro-2H-pyran-4-yl)pyrrolidin-3-yl)phenyl)amino)-6,7-dihydro-5H-pyrrolo[3,4-d]pyrimidin-5-one]
0.01 to 0.1	< 0.01	C[C@]1(c2ccc(Nc3nc(-c4c(F)cccc4F)nc4c3C(=O)NC4)cc2)CCN(C2CCOCC2)C1=O [Compound I-126, (R)-2-(2,6-difluorophenyl)-4-((4-(3-methyl-2-oxo-1-(tetrahydro-2H-pyran-4-yl)pyrrolidin-3-yl)phenyl)amino)-6,7-dihydro-5H-pyrrolo[3,4-d]pyrimidin-5-one]
0.1 to 1	< 0.01	CC1(C)CC(c2ccc(Nc3nc(-c4c(F)cccc4F)nc4c3C(=O)NC4)cc2)C(=O)N1 (stereo not drawn) [Compound I-213, 2-(2,6-difluorophenyl)-4-((4-(5,5-dimethyl-2-oxopyrrolidin-3-yl)phenyl)amino)-6,7-dihydro-5H-pyrrolo[3,4-d]pyrimidin-5-one]
< 0.01	< 0.01	CN1CCN[C@](C)(c2ccc(Nc3cc(-c4c(F)cccc4F)nc4c3C(=O)NC4)nc2)C1=O [Compound I-224, (R)-2-(2,6-difluorophenyl)-4-((5-(2,4-dimethyl-3-oxopiperazin-2-yl)pyridin-2-yl)amino)-6,7-dihydro-5H-pyrrolo[3,4-b]pyridin-5-one]
0.1 to 1	0.01 to 0.1	O=C1NCc2nc(-c3c(F)cccc3F)nc(Nc3ccc(C(=O)N4CC5(COC5)C4)cc3)c21 [Compound I-157, 4-((4-(2-oxa-6-azaspiro[3.3]heptane-6-carbonyl)phenyl)amino)-2-(2,6-difluorophenyl)-6,7-dihydro-5H-pyrrolo[3,4-d]pyrimidin-5-one]
0.1 to 1	< 0.01	C[C@@H](O)CNC(=O)Cc1ccc(Nc2nc(-c3c(F)cccc3F)nc3c2C(=O)NC3)cc1 [Compound I-77, (R)-2-(4-((2-(2,6-difluorophenyl)-5-oxo-6,7-dihydro-5H-pyrrolo[3,4-d]pyrimidin-4-yl)amino)phenyl)-N-(2-hydroxy-propyl)acetamide]
0.1 to 1	< 0.01	O=C1NCc2nc(-c3c(F)cccc3F)nc(Nc3ccc(CC(=O)N4CC5(COC5)C4)cc3)c21 [Compound I-62, 2-(2,6-difluorophenyl)-4-((4-(2-oxo-2-(2-oxa-6-azaspiro[3.3]heptan-6-yl)ethyl)phenyl)amino)-6,7-dihydro-5H-pyrrolo[3,4-d]pyrimidin-5-one]
